Here are results for four compounds from US6057364A, “Fluoro-substituted adamantane derivatives” (Pfizer Inc, priority 1998, dated 2000).

Molecules are shown by their SMILES. Bounds are passed on as bounds.

This data set can be described thus: metabolic stability in liver microsomes (standard microsomal incubation, LC/MS). It counts as in vitro ADME. Particulars: 10 μM compound, 0.2 μM microsomal cytochrome P450, pH 7.4, 37° C, read-out: % Loss (amount of compound that was metabolically degraded). The method, then:
The metabolic stability of the active compounds may be assessed according to the following procedure. A standard microsomal incubation condition is prepared for assessing the rate of metabolism of the active compound in liver microsomes. The microsomal incubation condition comprises 100 mM potassium phosphate buffer (pH 7.4), 10 mM MgCl2, 0.5 mM NADP^+ (nicotinamide adenine dinucleotide phosphate) 4 mM glucose 6 phosphate, 10 unit/mL glucose 6 phosphate dehydrogenase, 0.2 μM microsomal cytochrome P450, and 10 μM active compound. The incubation is started by adding substrate to the reaction mixture that has been preincubated for approximately 3 minutes at 37° C. An aliquot is removed at 0, 1, 2, 5, 10, and 20 minute time points and added to an equal volume of methanol to quench the reaction. The precipitate in the samples is removed by centrifugation and the supernatants are stored at -20° C. The samples are analyzed by standard LC/MS to determine the amount of active compound that has been metabolically degraded.
The compounds illustrated in the chemical formula provided for the Table above were prepared as described in PCT published patent application WO 95/29909, which was published Nov. 9, 1995, entitled "Novel Acyclic And Cyclic Amides As Neurotransmitter Release Enhancers." The compounds illustrated above are pharmaceutically active compounds that enhance the release of neurotransmitters such as acetylcholine, dopamine and serotonin, and therefore are useful for treating Alzheimer's disease, age-associated memory impairment, Parkinson's disease and other central nervous system disorders in mammals, in particular humans. The metabolic stability of the above compounds was assessed according to the procedure described above. The metabolic stability of the above compounds is provided in the above table in the column marked "% Loss" which indicates the amount of compound that was metabolically degraded after 10 minutes in a standard microsomal incubation condition which was prepared as described above.
On the technique in general: Liver microsomes are a subcellular fraction often used to study metabolism.
For the compound `O=C1CC(Cc2ccncc2)(Cc2ccncc2)C(=O)N1C12CC3CC(CC(F)(C3)C1)C2` [F H H], the metabolised at 10 min, 10 µM is 75%.
Then `O=C1CC(Cc2ccncc2)(Cc2ccncc2)C(=O)N1C12CC3CC(F)(CC(F)(C3)C1)C2` [F F H], with 75%; and `O=C1CC(Cc2ccncc2)(Cc2ccncc2)C(=O)N1C12CC3(F)CC(F)(CC(F)(C3)C1)C2` [F F F], with 10%; and `O=C1CC(Cc2ccncc2)(Cc2ccncc2)C(=O)N1C12CC3CC(CC(C3)C1)C2` [H H H, reference compound], with more than 75%.
